Literature values, collected in US20230056488A1, “COMPOSITION, ARTICLE AND METHOD FOR AFFECTING A MAMMAL” (COOLHOUSE SOURCING LLC, priority 2020, published 2023).

Key:
[1] = in vivo
[2] = system: ionotropic glutamate receptors
[3] = laboratory and animal research
[4] = oral and parenteral forms

CCNC(=O)CC[C@H](N)C(=O)O [Theanine, theanine]
crossing of the blood brain barrier [1]: cross the blood brain barrier (“BBB”) intact
binding to ionotropic glutamate receptors (AMPA and kainate receptors; lesser extent NMDA) [2]: micromolar range

CCCCCc1cc(O)c2c(c1)OC(C)(C)[C@@H]1CCC(C)=C[C@@H]21 [THC, tetrahydrocannabinol]
toxicity to dogs: toxic to dogs

CCCc1cc(O)c2c(c1)OC(C)(C)[C@@H]1CCC(C)=C[C@@H]21 [THCV, Tetrahydrocannabivarin]
anti-inflammatory effects [3]: some anti-inflammatory effects

C[S@@+](CC[C@H](N)C(=O)[O-])C[C@H]1O[C@@H](n2cnc3c(N)ncnc32)[C@H](O)[C@@H]1O [SAMe, (S)-2-amino-4-((SS)-(((2S,3S,4R,5R)-5-(6-amino-9H-purin-9-yl)-3,4-dihydroxytetrahydrofuran-2-yl)methyl)(methyl)sulfonio)butanoate]
crossing of the blood-brain barrier / cerebrospinal fluid concentrations [4]: cross the blood-brain barrier and increase concentrations in cerebrospinal fluid
